Read-outs that look alike come from different tables or passages of the source.
Assays:
SARS-CoV-2 [1] = assay: Antiviral activity by immunofluorescence microscopy in Vero E6 cells; format: cell-based; conditions: for EC50: Severe acute respiratory syndrome coronavirus 2, Vero C1008, 48 h
Procedure: (§1) Vero E6, A549-ACE2 or Calu3 were seeded onto 96-well plates as described above and infected in the presence of the indicated compound dose (MOI = 0.01). Twenty-four hours post infection (48 h for Calu3 cells), cells were fixed for 20 min at room temperature with a 4% formaldehyde solution in PBS, washed twice with PBS and incubated with incubation buffer (3% BSA; 0.3% Triton X100 in PBS) for 1 h. A monoclonal antibody against the N protein was diluted in the incubation buffer (1:2000, v/v; Genetex HL344) and incubated with the cells for 1 h; after this time, cells were washed with PBS and subsequently incubated with a 1:500 (v/v) dilution of a goat anti-rabbit conjugated to Alexa 488 (Invitrogen-Carlsbad, Carlsbad, CA, USA). Nuclei were stained with DAPI (Life Technologies, Budapest, Hungary) as recommended by the manufacturer during the secondary antibody incubation. Cells were washed with PBS and imaged using an automated multimode reader Spark Cyto (TECAN-Grödig, Austria).
(§2) All the infection experiments were performed by mixing the virus and compound dilutions 1:1 (v/v) before addition to the target cells. In the time-of-addition experiments, Vero E6 cultures were inoculated (MOI from 0.5–1) for 1 h in the presence or absence of the compounds at 37 °C. Subsequently, virus-compound mixtures were left at all times, or removed and replaced with fresh 2% FBS complete media containing or not the tested compounds (see experimental scheme in Figure 7 for details). Cells were fixed 6 h post-inoculation.
(§3) Descriptive statistics were calculated using Microsoft Excel. One-way ANOVA and post hoc tests were calculated using IBM SPSS Software Package (version 26). EC50 and EC90 values were obtained employing the PROBIT regression method using IBM SPSS vs26, except for values in Table 1 that were calculated by graphic interpolation of individual curves.

SARS-CoV-2 [2] = assay: Antiviral activity by immunofluorescence microscopy in A549-ACE2 cells; format: cell-based; conditions: A549-ACE2, MOI 0.01, 48 h; for EC50: Severe acute respiratory syndrome coronavirus 2, A549-ACE2, 48 h
Procedure: as §1, §2, §3

SARS-CoV-2 [3] = assay: Antiviral activity by immunofluorescence microscopy in Calu3 cells; format: cell-based; conditions: Calu3, MOI 0.005, 48 h; for EC50: Severe acute respiratory syndrome coronavirus 2, Calu-3, 48 h
Procedure: as §1, §2, §3

SARS-CoV-2 [4] = assay: Viral RNA load by RT-qPCR in Vero E6 cells; format: cell-based; conditions: 25 µM, Vero E6, MOI 0.001, 72 h post infection
SARS-CoV-2 [5] = assay: Extracellular viral RNA load by RT-qPCR in A549-ACE2 cells; format: cell-based; conditions: A549-ACE2, 48 h
SARS-CoV-2 [6] = assay: Combination treatment of PheoA with RMDV in Vero E6 cells, immunofluorescence microscopy; format: cell-based; conditions: Severe acute respiratory syndrome coronavirus 2, Vero C1008, 24 h, read-out: EC50 of individual treatment
Procedure: Thus, combination treatments were performed with increasing doses of PheoA and RMDV. Drugs were mixed in different proportions, combined with infectious SARS-CoV-2 (MOI = 0.01) and the mixtures were used to inoculate Vero E6 cells. Twenty-four hours later, cells were fixed and processed to determine the infection efficiency as using immunofluorescence microscopy. […] Increasing concentrations of PheoA improved RMDV efficacy and viceversa.
Synergy analysis was carried out in the web-based platform Synergy Finder (https://synergyfinder.fimm.fi/, accessed on 25 September 2021).

SARS-CoV-2 [7] = assay: Time-of-addition experiment in Vero E6 cells (single-cycle infection); format: cell-based; conditions: for efficacy when added during the virus entry phase (in words): versus maintained at all times
Procedure: Next, antiviral efficacy of PheoA was compared when PheoA was (i) present at all times, (ii) added only during virus inoculation, or (iii) added only after virions had effectively penetrated the cells in single-cycle infection experiments ([…]).
as §2

SARS-CoV-2 [8] = conditions: monolayers protected down to this concentration; read-out: reported EC50; cited from earlier work
SARS-CoV-2 [9] = assay: Cytopathic effect protection assay (crystal violet) in Vero E6 cells; format: cell-based; conditions: Vero E6, 72 h
Procedure: In order to explore for the presence of anti-SARS-CoV-2 metabolites in M. polymorpha, we prepared crude extracts of two different M. polymorpha subspecies (subsp. ruderalis from Japan and subsp. polymorpha, from Spain). The anti-SARS-CoV-2 activity of the resulting crude extracts was tested in Vero E6 cell monolayers infected with the SARS-CoV-2 NL2020 strain (Figure 1A). Infection was carried out at a multiplicity of infection (MOI) of 0.001 for 72 h. In the absence of antiviral activity, SARS-CoV-2 infection triggers cell death of Vero E6 cells and results in loss of cell biomass in the well, which is readily visualized as a strong reduction in crystal violet staining (DMSO, Figure 1A). […] Thus, protective activity may be used as a rapid qualitative surrogate assay to facilitate identification of substances with antiviral potential.
Vero E6 or Huh7-ACE2 cell monolayers were inoculated (MOI = 0.001) in the presence of a wide range of two-fold dilutions of the crude, or partially purified extracts, or pure compounds and incubated for 72 h. Cytopathic effect and lack thereof was visualized by crystal violet staining, as previously described. Untreated and solvent-treated cells were included in each plate as controls. […] A minimum virus dose (10 infectious units/well; MOI 0.001 in 1e4 cells/well) capable of producing overt cytopathic effect was used. […]

SARS-CoV-2 [10] = assay: Cytopathic effect protection assay (crystal violet) in Huh7-ACE2 cells; format: cell-based; conditions: Huh7-ACE2, 72 h
Procedure: To confirm the antiviral potential of PheoA, a commercially available PheoA stock solution was serially diluted and mixed with a virus stock to inoculate Vero E6 and Huh7-ACE2 cells (human hepatoma cells expressing ACE2). Cells were fixed 72 h post-inoculation and stained with crystal violet to visualize the integrity of the cell monolayer.
Vero E6 or Huh7-ACE2 cell monolayers were inoculated (MOI = 0.001) in the presence of a wide range of two-fold dilutions of the crude, or partially purified extracts, or pure compounds and incubated for 72 h. Cytopathic effect and lack thereof was visualized by crystal violet staining, as previously described. Untreated and solvent-treated cells were included in each plate as controls. […] A minimum virus dose (10 infectious units/well; MOI 0.001 in 1e4 cells/well) capable of producing overt cytopathic effect was used. Lower virus doses produce visible plaques and complete absence of CPE coincides with the expected endpoint dilution, around 8-fold lower dilutions.

SARS-CoV-2 [11] = assay: Antiviral activity by immunofluorescence microscopy, summary for Vero E6, A549-ACE2 and Calu3; format: cell-based; conditions: Severe acute respiratory syndrome coronavirus 2, all tested cell lines
Procedure: (§4) PheoA antiviral activity was further confirmed by immunofluorescence microscopy–to estimate virus propagation–and an MTT assay–to evaluate compound cytotoxicity. […] This dataset was used to determine effective concentrations (EC50 and EC90) and cytotoxicity indexes. The estimated EC50 and EC90 values were around 50 nM and 100 nM, respectively, with a wide therapeutic window in all tested cell lines (Table 1)
as §1

[12] = Cytotoxicity by MTT assay in Vero E6 cells; format: cell-based, Green Monkey; conditions: green monkey, Vero E6 cells; Vero-E6, MTT, 48 h
Procedure: (§5) Cell monolayers were seeded in 96-well plates. The day after cells were treated with a wide range of compound concentrations and forty-eight hours later they were subjected to an MTT assays using standard procedures. The CC50 values were graphically interpolated from dose–response curves obtained with three biological replicates.

[13] = Cytotoxicity by MTT assay in A549-ACE2 cells; format: cell-based; conditions: human
Procedure: as §5

[14] = Cytotoxicity by MTT assay in Calu3 cells; format: cell-based; conditions: human
Procedure: as §5

[15] = system: Vero E6, A549-ACE2 and Calu3 cells; assay: Cytotoxicity by MTT assay, summary for Vero E6, A549-ACE2 and Calu3; format: cell-based; conditions: all three models, assayed doses
Procedure: as §4, §5

HCV = assay: microbe, parasite or virus in culture; format: cell-based; conditions: Hepatitis C virus, Huh-7, 48 h
hCoV-229E = assay: microbe, parasite or virus in culture; format: cell-based; conditions: Human coronavirus 229E, Huh-7, 48 h
West Nile Virus = assay: microbe, parasite or virus in culture; format: cell-based; conditions: Huh-7, 48 h
[16] = system: vesicular stomatitis virus (VSV-GFP); assay: microbe, parasite or virus in culture; format: cell-based; conditions: Huh-7
[17] = system: vesicular stomatitis virus (VSV-GFP); assay: microbe, parasite or virus in culture; format: cell-based; conditions: A549-ACE2
[18] = system: retroviral vectors pseudotyped with SARS-CoV-2 Spike protein (SARS2pp); format: cell-based
[19] = system: retroviral vectors pseudotyped with VSV glycoprotein (VSVpp); format: cell-based
SARS-CoV-2 virions = assay: Virucidal assay: pre-incubation of virions, residual infectivity titer by TCID50; format: cell-based; conditions: for virus infectivity after pre-incubation (in words): 340 nM
Huh7 cells = conditions: Huh7, 48 h
Vero E6 cells = assay: Cytotoxicity by MTT assay in Vero E6 cells; format: cell-based, Green Monkey; conditions: Vero E6, MTT, parallel cultures
Procedure: as §5

[20] = Vero E6, MOI 0.005, 48 h, PROBIT regression
[21] = mean ± SD n = 3, graphic interpolation

SMILES: C=Cc1c(C)c2cc3nc(c4c5[nH]c(cc6nc(cc1[nH]2)C(C)=C6CC)c(C)c5C(=O)[C@@H]4C(=O)OC)[C@@H](CCC(=O)O)[C@@H]3C [Semi-synthetic PheoA, Pheophorbide a]
- EC50 (SARS-CoV-2 [1]; [20]): 51 nM
- EC50 (SARS-CoV-2 [2]; PROBIT regression): 74 nM
- EC50 (SARS-CoV-2 [3]; PROBIT regression): 38 nM

SMILES: CCC(CC)COC(=O)[C@H](C)N[P@](=O)(OC[C@H]1O[C@@](C#N)(c2ccc3c(N)ncnn23)[C@H](O)[C@@H]1O)Oc1ccccc1 [RMDV, Remdesivir]
- viral RNA load (SARS-CoV-2 [4]): undetectable
- reduction of extracellular viral RNA (SARS-CoV-2 [5]; 5 µM): two orders of magnitude
- EC50 (SARS-CoV-2 [6]): 2000 nM
- antiviral activity when maintained at all times (in words) (SARS-CoV-2 [7]; Vero E6, MOI 5, 6 h): highly effective at reducing infection efficiency
- EC50 (SARS-CoV-2 [8]): 1500 nM

SMILES: C=Cc1c(C)c2cc3nc(c4c5[nH]c(cc6nc(cc1[nH]2)C(C)=C6CC)c(C)c5C(=O)[C@@H]4C(=O)OC)[C@@H](CCC(=O)O)[C@@H]3C [PheoA, Pheophorbide a]
- concentration with consistent protective capacity (SARS-CoV-2 [9]): above 65 nM
- concentration with consistent protective capacity (SARS-CoV-2 [10]): above 65 nM
- EC50 (SARS-CoV-2 [1]; Vero-E6, MOI 0.005, 48 h, mean ± SD n = 3, graphic interpolation): 54 ± 13 nM
- EC90 (SARS-CoV-2 [1]; Severe acute respiratory syndrome coronavirus 2, Vero C1008, Vero-E6, MOI 0.005, 48 h, mean ± SD n = 3): 106 ± 16 nM
- EC50 (SARS-CoV-2 [2]; [21]): 62 ± 25 nM
- EC90 (SARS-CoV-2 [2]; Severe acute respiratory syndrome coronavirus 2, mean ± SD n = 3): 201 ± 84 nM
- EC50 (SARS-CoV-2 [3]; [21]): 35 ± 20 nM
- EC90 (SARS-CoV-2 [3]; Severe acute respiratory syndrome coronavirus 2, Calu-3, mean ± SD n = 3): 98 ± 8 nM
- EC50 (SARS-CoV-2 [11]; read-out: estimated EC50): ~50 nM
- EC90 (SARS-CoV-2 [11]; read-out: estimated EC90): ~100 nM
- CC50 at 48 h [12]: > 8420 nM
- CC50 at 48 h [13]: 2600 ± 500 nM
- CC50 at 48 h [14]: > 8420 nM
- cytotoxicity (in words) [15]: no cytotoxicity was observed
- viral RNA accumulation (in words) (SARS-CoV-2 [5]; increasing concentrations): reduced viral RNA accumulation in a dose-dependent manner
- EC50 (HCV): 300 nM
- EC50 (hCoV-229E): 128 nM
- EC50 (West Nile Virus): 64 nM
- EC50 [16]: 506 nM
- EC50 [17]: 578 nM
- EC50 (SARS-CoV-2 [6]): 40 nM
- antiviral activity when maintained at all times (in words) (SARS-CoV-2 [7]; Vero E6, MOI 5, 6 h): expected antiviral activity
- efficacy when added during the virus entry phase (in words) (SARS-CoV-2 [7]; Vero E6, MOI 5, 6 h): nearly identical
- efficacy when added after virion internalization (SARS-CoV-2 [7]; Vero E6, MOI 5, fixed 6 h post-inoculation): ca. 6 % of the maximum efficacy
- maximum reduction of infection efficiency ([18]; maximum dose 675 nM, 48 h): ≤ 40%
- maximum reduction of infection efficiency [19]: ≤ 40%
- virus infectivity after pre-incubation (in words) (SARS-CoV-2 virions; 30 min): reduced partially
- virus infectivity after pre-incubation (in words) (SARS-CoV-2 virions; 60 min): below detection limits
- virus infectivity after pre-incubation (in words) (SARS-CoV-2 virions; up to 15 min, room temperature): did not have any significant impact on virus infectivity
- dose giving statistically significant reduction in remaining virus infectivity (SARS-CoV-2 virions; 30 min pre-incubation, 10^5 TCID50/mL, room temperature): above 67 nM
- cytotoxicity (in words) (Huh7 cells): no cytotoxicity was observed

SMILES: C=Cc1c(C)c2cc3nc(c4c5[nH]c(cc6nc(cc1[nH]2)C(C)=C6CC)c(C)c5C(=O)C4)[C@@H](CCC(=O)O)[C@@H]3C [pPheoA, pyropheophorbide a]
- EC50 (SARS-CoV-2 [1]; [20]): 185 nM
- cytotoxicity (in words) (Vero E6 cells): absence of measurable cytotoxicity

SMILES: Cc1ccc(NC(=O)c2ccc(CN3CCN(C)CC3)cc2)cc1Nc1nccc(-c2cccnc2)n1 [imatinib, Imatinib]
- efficacy when added after virion internalization (in words) (SARS-CoV-2 [7]; 15 µM, Vero E6, MOI 5, 6 h): greatly lost efficacy
- antiviral activity when maintained at all times (in words) (SARS-CoV-2 [7]; Vero E6, MOI 5, 6 h): expected antiviral activity
- efficacy when added during the virus entry phase (in words) (SARS-CoV-2 [7]; Vero E6, MOI 5, 6 h): comparable efficacy
- entry inhibition (in words) ([18]; 15 µM): selectively inhibited SARS2pp
- entry inhibition (in words) ([19]; 15 µM): not VSVpp entry
